In ChEMBL document CHEMBL1667752 (Eur J Med Chem, 2011) one finds Ki and log(ratioKi) data, which are given here for 18 molecules.

Test [1] has as its target Cannabinoid receptor 1 (Homo sapiens, UniProt P21554). Nature of the test: Displacement of [3H]CP 55940 from human CB1 receptor in cell free system. On the technique in general: Displacement assays read how much labelled ligand stays bound in the presence of the test substance.
For test [2], the species on record is Homo sapiens. Put plainly: Selectivity ratio of Ki for human CB1 to Ki for human CB2.
Test [3] has as its target Cannabinoid receptor 2 (Homo sapiens, UniProt P34972). Put plainly: Displacement of [3H]CP 55940 from human CB2 receptor in cell free system. To be noted: read-out: Ki.

Sequence of Cannabinoid receptor 1 (P21554 whole entry): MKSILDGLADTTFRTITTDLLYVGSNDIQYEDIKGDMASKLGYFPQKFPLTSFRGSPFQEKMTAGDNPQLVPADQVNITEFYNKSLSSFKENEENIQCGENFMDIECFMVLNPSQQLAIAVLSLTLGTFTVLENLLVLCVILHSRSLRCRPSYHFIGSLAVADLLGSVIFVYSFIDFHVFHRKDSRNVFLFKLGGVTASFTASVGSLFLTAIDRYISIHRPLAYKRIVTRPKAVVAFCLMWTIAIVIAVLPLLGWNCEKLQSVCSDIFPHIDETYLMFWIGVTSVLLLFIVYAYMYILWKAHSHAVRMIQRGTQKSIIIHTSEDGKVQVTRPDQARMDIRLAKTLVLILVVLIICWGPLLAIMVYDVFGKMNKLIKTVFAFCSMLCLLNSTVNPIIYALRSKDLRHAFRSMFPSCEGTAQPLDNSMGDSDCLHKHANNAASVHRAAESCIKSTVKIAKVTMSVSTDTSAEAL
Sequence of Cannabinoid receptor 2 (P34972 whole entry): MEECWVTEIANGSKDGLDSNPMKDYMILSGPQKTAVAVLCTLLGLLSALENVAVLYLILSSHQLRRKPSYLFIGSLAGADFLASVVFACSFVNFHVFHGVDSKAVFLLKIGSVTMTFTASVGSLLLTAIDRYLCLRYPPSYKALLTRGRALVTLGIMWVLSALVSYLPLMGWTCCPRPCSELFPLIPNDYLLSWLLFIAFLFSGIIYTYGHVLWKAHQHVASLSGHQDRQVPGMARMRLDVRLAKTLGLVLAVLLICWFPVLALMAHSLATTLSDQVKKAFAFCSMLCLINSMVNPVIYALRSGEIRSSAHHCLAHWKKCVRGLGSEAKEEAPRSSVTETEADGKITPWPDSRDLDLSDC

As to `Cc1ccc(C(=O)NC2C(C)(C)[C@@H]3CC[C@]2(C)C3)cc1S(=O)(=O)N1CCOCC1` (some centres undefined), the Ki – broadly, the dissociation constant of the complex between target and ligand, obtained from inhibition or displacement – in test [1] worked out at 130 nM; in test [3] it was 3.9 nM. Also, the log(ratioKi) in test [2] came out at 1.5.

Consider `CC1(C)C(C(=O)c2cn(CC3CCOCC3)c3c(COc4ccccc4)cccc23)C1(C)C`, for which the figures for the Ki in test [1] and in test [3] were 28 nM and 3 nM, respectively. Moreover, the log(ratioKi) in test [2] is 0.98.

For `Cc1c(C(C)(C)C)s/c(=N\C(=O)c2ccc(Br)cc2)n1CC1CC1`, the Ki in test [1] turned out to be 53 nM; in test [3], 1.2 nM. Besides, the log(ratioKi) in test [2] was 1.6.

With `CCCCCn1cc(C(=O)NC2C(C)(C)[C@@H]3CC[C@@]2(C)C3)c(=O)c2cc(-c3ccco3)ccc21` (some centres undefined), the Ki in test [1] came out at 480 nM; in test [3] it was 2.4 nM. The log(ratioKi) in test [2] came to 2.3.

In the case of `CCCCCn1cc(C(=O)NC23CC4CC(CC(C4)C2)C3)c(=O)c2cccc(C)c21`, the Ki is above 10000 nM in test [1] and 4.9 nM in test [3]. In addition, in test [2], the log(ratioKi) is above 3.3.

With `CCCCCCC1(c2cc(O)c3c(c2)OC(C)(C)[C@@H]2CC=C(C)C[C@@H]32)CC1`, the Ki in test [1] stood at 1 nM; in test [3], 0.9 nM. In test [2], the log(ratioKi) is 0.07.

For the molecule `Cc1nc(C(=O)NC23CC4CC(CC2C4)C3)c(C)n1-c1ccccc1`, the Ki in test [1] was determined as 5440 nM; in test [3] it was 9.7 nM. The log(ratioKi) in test [2] was 2.74.

Consider `Cc1ccc2c(=O)c(C(=O)NC3CCCC3)cn(CCN3CCOCC3)c2n1`, for which the Ki in test [1] worked out at 1000 nM; in test [3], 50 nM. For the same molecule, the log(ratioKi) in test [2] is 1.3.

Regarding `CCCCCCC1(c2cc(O)c3c(c2)OC(C)(C)[C@@H]2CC=C(C)C[C@@H]32)CC1(Cl)Cl` (some centres undefined), the results for the Ki in test [1] and in test [3] were 1.8 nM and 1.3 nM, respectively. Further, the log(ratioKi) in test [2] stood at 0.19.

`CC1(C)C(C(=O)c2cn(CC3CCOCC3)c3ccc(N)cc23)C1(C)C`: the Ki in test [1] is 1000 nM; in test [3] it was 9 nM. In addition, the log(ratioKi) in test [2] turned out to be 2.05.

As for `Cc1nc(C(=O)Nc2ccccc2C(F)(F)F)c(C)n1-c1ccccc1`, the figures for the inhibition constant Ki in test [1] and in test [3] were 1420 nM and 3.5 nM, respectively. Moreover, in test [2], the log(ratioKi) stood at 2.6.

Regarding `CC1=CC[C@@H]2[C@@H](C1)c1c(O)cc(C(C)(C)c3cccs3)cc1OC2(C)C`, the Ki in test [1] was 12.3 nM; in test [3], 0.91 nM. For the same molecule, in test [2], the log(ratioKi) stood at 1.13.

As to `CCCCCn1c(C)c(C(=O)c2ccc(CCCC)c3ccc(C)cc23)c2ccccc21`, the results for the Ki in test [1] and in test [3] were 42 nM and 6.5 nM, respectively. For the same molecule, in test [2], the log(ratioKi) came to 0.81.

As to `Cc1c(Cl)ccc2c(=O)c(C(=O)NC34CC5CC(CC(C5)C3)C4)c[nH]c12`, the Ki in test [1] was above 10000 nM; in test [3] it was 25.5 nM. Also, in test [2], the log(ratioKi) came to 2.59.

`CCCCCCC1CCCc2c1cc1c(c2O)[C@@H]2CC(C)=CC[C@H]2C(C)(C)O1` (some centres undefined): the Ki in test [1] came to 22.3 nM; in test [3] it was 5.4 nM. Besides, the log(ratioKi) in test [2] was 0.6.

With `C=C1CC[C@@H]2[C@@H](C1)c1c(OC)cc(C(C)(C)CCCCCC)cc1OC2(C)C`, the Ki in test [1] is 4890 nM; in test [3] it was 11.8 nM. In addition, the log(ratioKi) in test [2] worked out at 2.26.

For the molecule `CCCCCCn1cc(C(=O)NC2CCCCC2)c(=O)c2ccc(C)nc21`, the Ki is 95 nM in test [1] and 8 nM in test [3]. Moreover, the log(ratioKi) in test [2] came out at 1.07.

As for `CCC1CCC(C(=O)c2cn(CCN3CCOCC3)c3ccccc23)CC1` (centres undefined), the Ki amounted to 616 nM in test [1] and 16 nM in test [3]. The log(ratioKi) in test [2] came out at 1.58.
